Test systems include SNB-75; OVCAR-4; IGROV-1; MDA-N; Hs-578T; PC-3; MOLT-4; M14; EKVX; SW-620; UO-31; HOP-62; SK-MEL-28; SN12C; Malme-3M; OVCAR-8; SF-539; COLO 205; MDA-MB-231; OVCAR-3.
Common to all, as to assay: NCI-60 cell line screen, 48 h

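Assay format: 96-well plates, 48-hour exposure. GI50: concentration for 50% inhibition of growth.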 Active and inactive are the calls of the source. No stated cut-off is given here; in the data, active = GI50 up to about 1.1 µM and inactive = higher. Bounds are passed on as bounds.

Experimental findings from ChEMBL document CHEMBL1201862, “PubChem BioAssay data set” (2004) are described below.

In the case of `Clc1nc(Cl)nc(NC23CC4CC(CC(C4)C2)C3)n1`, the GI50 in the assay with SNB-75 was 17.5 µM (inactive); in the assay with OVCAR-4, 17.7 µM (inactive); with IGROV-1 it was 13.7 µM (inactive); in the assay on MDA-N it was 17.4 µM (inactive); in the assay with Hs-578T it was 11.8 µM (inactive); in the assay with PC-3 it was > 34.8 µM (inactive). Further, the GI50 in the assay with MOLT-4 is 17.9 µM (inactive); in the assay with M14 it was 18 µM (inactive); in the assay on EKVX it was 19.5 µM (inactive); with SW-620, 16.7 µM (inactive); with UO-31 it was 9.33 µM (inactive); in the assay on HOP-62, 17.7 µM (inactive). In addition, the GI50 is 19.6 µM (inactive) in the assay with SK-MEL-28; 18.1 µM (inactive) in the assay on SN12C; 16.2 µM (inactive) with Malme-3M; 18.1 µM (inactive) in the assay with OVCAR-8; 17.5 µM (inactive) in the assay on SF-539; 17.5 µM (inactive) with COLO 205. For the same compound, the GI50 is 17.9 µM (inactive) in the assay on MDA-MB-231 and 18.8 µM (inactive) with OVCAR-3.

Consider `Clc1ccc(C2ON=C(c3ccccc3)N2C23CC4CC(CC(C4)C2)C3)cc1Cl` (configuration not stated), for which the GI50 in the assay on SNB-75, in the assay on OVCAR-4, in the assay with IGROV-1, in the assay on MDA-N, in the assay with Hs-578T and in the assay with PC-3 was > 10 µM (inactive) in each case. For the same compound, the GI50 in the assay on MOLT-4, in the assay on M14, in the assay with EKVX, in the assay on SW-620, in the assay on UO-31 and in the assay on HOP-62 was > 10 µM (inactive) in each case. The GI50 in the assay with SK-MEL-28 is 7.93 µM (inactive); in the assay on SN12C, > 10 µM (inactive); in the assay with Malme-3M, > 10 µM (inactive); with OVCAR-8 it was > 10 µM (inactive); in the assay on SF-539 it was > 10 µM (inactive); in the assay with COLO 205, > 10 µM (inactive). The GI50 with MDA-MB-231 and in the assay on OVCAR-3 was > 10 µM (inactive) throughout.

In the case of `N=c1oc2c(Br)cc(Br)cc2cc1C(=O)Nc1ccccn1`, the GI50 is > 100 µM (inactive) with SNB-75; 68.9 µM (inactive) in the assay with OVCAR-4; > 100 µM (inactive) in the assay with IGROV-1; > 100 µM (inactive) in the assay on MDA-N; 64.4 µM (inactive) in the assay with Hs-578T; 38.5 µM (inactive) with PC-3. Also, the GI50 in the assay with MOLT-4 is > 100 µM (inactive); in the assay on M14 it was 56 µM (inactive); in the assay on EKVX, > 100 µM (inactive); in the assay with SW-620, > 100 µM (inactive); with HOP-62, 53 µM (inactive); in the assay on SK-MEL-28 it was > 100 µM (inactive). Besides, the GI50 with SN12C is > 100 µM (inactive); in the assay with Malme-3M, 52.2 µM (inactive); in the assay on OVCAR-8, 45.9 µM (inactive); in the assay with SF-539 it was 31.8 µM (inactive); in the assay on COLO 205 it was > 100 µM (inactive); in the assay on MDA-MB-231 it was > 100 µM (inactive). The GI50 in the assay with OVCAR-3 was 32.3 µM (inactive).

For the compound `Cc1ccc(CNc2ccc(Br)cc2)cc1`, the GI50 with SNB-75 was 37.3 µM (inactive); in the assay on MDA-N, 25.4 µM (inactive); in the assay with Hs-578T it was 70.6 µM (inactive); with PC-3, 31.6 µM (inactive); in the assay with MOLT-4, 44.8 µM (inactive); in the assay with M14, 59.6 µM (inactive). Moreover, the GI50 with EKVX is 25.6 µM (inactive); in the assay on SW-620 it was 37.5 µM (inactive); in the assay on UO-31, 13.5 µM (inactive); in the assay with HOP-62, 83.2 µM (inactive); in the assay with SK-MEL-28, 87.5 µM (inactive); in the assay on SN12C, 20.9 µM (inactive). Also, the GI50 was 21.5 µM (inactive) with Malme-3M; 16.3 µM (inactive) in the assay with OVCAR-8; 36.8 µM (inactive) in the assay with SF-539; 16.5 µM (inactive) in the assay with COLO 205; 19.3 µM (inactive) in the assay with MDA-MB-231; 34.8 µM (inactive) in the assay on OVCAR-3.

For the compound `CC(=O)C(C(=O)c1ccc(C)cc1)[C@@H]1OC(C)(C)O[C@@H]1[C@H]1COC(C)(C)O1` (some centres not stated), the GI50 in the assay on SNB-75 is 13.4 µM (inactive); in the assay on OVCAR-4 it was 4 µM (inactive); in the assay with IGROV-1, 12.7 µM (inactive); with MDA-N, 7.21 µM (inactive); with Hs-578T, 3.84 µM (inactive); in the assay on PC-3, 8.57 µM (inactive). The GI50 in the assay on MOLT-4 is 2.61 µM (inactive); with M14 it was 11.3 µM (inactive); with EKVX, 23.9 µM (inactive); with SW-620, 3.55 µM (inactive); in the assay with UO-31 it was 12.7 µM (inactive); with HOP-62, 10.5 µM (inactive). The GI50 in the assay on SK-MEL-28 was 20.8 µM (inactive); in the assay with SN12C it was 3.97 µM (inactive); in the assay with Malme-3M it was 15.9 µM (inactive); in the assay with OVCAR-8, 7.26 µM (inactive); in the assay with SF-539 it was 5.79 µM (inactive); in the assay on COLO 205, 18.1 µM (inactive). Also, the GI50 with MDA-MB-231 was 10.5 µM (inactive); in the assay on OVCAR-3, 7.66 µM (inactive).

In the case of `c1ccc2cc(OCC3CO3)c(OCC3CO3)cc2c1` (configuration not stated), the GI50 in the assay with SNB-75 is 4.84 µM (inactive); with IGROV-1 it was 1.3 µM (inactive); with MDA-N it was 10.1 µM (inactive); with Hs-578T it was 3.89 µM (inactive); in the assay on PC-3 it was 12.7 µM (inactive); with MOLT-4 it was 0.562 µM (active). In addition, the GI50 was 1.64 µM (inactive) in the assay on M14; 11.4 µM (inactive) with EKVX; 1.91 µM (inactive) in the assay on SW-620; 2.37 µM (inactive) in the assay on UO-31; 1.43 µM (inactive) in the assay on HOP-62; 11.9 µM (inactive) in the assay on SK-MEL-28. For the same compound, the GI50 in the assay with SN12C is 2.37 µM (inactive); with Malme-3M, 7.64 µM (inactive); in the assay with OVCAR-8, 2.94 µM (inactive); in the assay on SF-539 it was 2.65 µM (inactive); in the assay with COLO 205, 12.8 µM (inactive); in the assay on MDA-MB-231 it was 14.5 µM (inactive). Also, the GI50 in the assay on OVCAR-3 is 13.4 µM (inactive).

Regarding `O=C1CCC2(CC1CCSc1ccccc1)OCCO2` (configuration not stated), the GI50 with SNB-75, in the assay with OVCAR-4, in the assay on IGROV-1, with MDA-N, in the assay with Hs-578T and in the assay on PC-3 was > 100 µM (inactive) in each case. In addition, the GI50 with MOLT-4 is 81.8 µM (inactive); in the assay on M14 it was > 100 µM (inactive); in the assay with EKVX, > 100 µM (inactive); with SW-620, > 100 µM (inactive); in the assay with UO-31, > 100 µM (inactive); in the assay with HOP-62, > 100 µM (inactive). The GI50 in the assay on SK-MEL-28, with Malme-3M, in the assay on OVCAR-8, with SF-539, in the assay on COLO 205 and in the assay with MDA-MB-231 was > 100 µM (inactive) throughout. The GI50 in the assay with OVCAR-3 is > 100 µM (inactive).

For `CCOC(=O)c1nc2cc(C(F)(F)F)ccc2nc1Oc1ccc(C#N)cc1`, the GI50 in the assay on SNB-75, in the assay on OVCAR-4, with IGROV-1, with MDA-N, in the assay on Hs-578T and in the assay with PC-3 was > 100 µM (inactive) in each case. The GI50 was 63.2 µM (inactive) in the assay on MOLT-4; > 100 µM (inactive) with M14; > 100 µM (inactive) with EKVX; > 100 µM (inactive) in the assay with SW-620; > 100 µM (inactive) with UO-31; > 100 µM (inactive) in the assay on SK-MEL-28. Further, the GI50 with SN12C, with Malme-3M, with OVCAR-8, in the assay with SF-539, with COLO 205 and in the assay with MDA-MB-231 was > 100 µM (inactive) each time. In addition, the GI50 in the assay with OVCAR-3 is > 100 µM (inactive).

Take `CC(O)C(O)C(O)C(/C=N\Nc1ccccc1)=N/Nc1ccccc1` (configuration not stated): the GI50 with SNB-75 is 16.7 µM (inactive); with IGROV-1 it was 8.49 µM (inactive); in the assay with MDA-N, 12.6 µM (inactive); in the assay on Hs-578T, 11 µM (inactive); in the assay with PC-3, 15.8 µM (inactive); with MOLT-4 it was 18.7 µM (inactive). The GI50 with M14 is 13.3 µM (inactive); in the assay with EKVX it was 12.1 µM (inactive); in the assay on SW-620, 11.6 µM (inactive); in the assay on UO-31 it was 12.2 µM (inactive); with HOP-62 it was 14.4 µM (inactive); in the assay on SK-MEL-28, 16.6 µM (inactive). In addition, the GI50 was 16 µM (inactive) in the assay on SN12C; 20 µM (inactive) in the assay with Malme-3M; 13.2 µM (inactive) in the assay with OVCAR-8; 15.1 µM (inactive) in the assay with SF-539; 14.3 µM (inactive) in the assay on COLO 205; 12.3 µM (inactive) in the assay with MDA-MB-231. In addition, the GI50 with OVCAR-3 was 8.55 µM (inactive).

For the compound `Cc1cccc2c(=O)c3cccc(CC(=O)O)c3oc12`, the GI50 in the assay on OVCAR-4, in the assay with IGROV-1, in the assay on MDA-N, with Hs-578T, with PC-3 and in the assay on MOLT-4 was > 100 µM (inactive) throughout. Further, the GI50 in the assay on M14, in the assay on EKVX, in the assay on SW-620, in the assay with UO-31, in the assay on HOP-62 and in the assay on SK-MEL-28 was > 100 µM (inactive) throughout. Besides, the GI50 in the assay on SN12C, in the assay on Malme-3M, with OVCAR-8, in the assay with SF-539, with COLO 205 and in the assay on MDA-MB-231 was > 100 µM (inactive) throughout. Also, in the assay on OVCAR-3, the GI50 was > 100 µM (inactive).
